{"source": "patent US5834458A", "about": "“Heterocyclic compounds and their use” (Eli Lilly and Company, priority 1996, dated 1998)"}
{"target": "muscarinic acetylcholine receptors", "assay": "inhibition of specific binding of 3H-Oxotremorine-M (3H-Oxo) to rat cortex", "parameters": "species or system rat (male Wistar)", "conditions": "3H-Oxotremorine 1.0 nM, 30 min, 25° C., pH 7.4", "excerpt": "The pharmacological properties of the compounds of the invention can be illustrated by determining their capability to inhibit the specific binding of ^3 H-Oxotremorine-M (^3 H-Oxo). Birdsdall N. J. M., Hulme E. C., and Burgen A. S. V. (1980). \"The Character of Muscarinic Receptors in Different Regions of the Rat Brain\". Proc. Roy. Soc. London (Series B) 207,1.\n^3 H-oxo labels muscarinic receptor in the CNS (with a preference for agonist domains of the receptors). Three different sites are labeled by ^3 H-Oxo. […] Using the present experimental conditions only the high and medium affinity sites are determined.\nThe inhibitory effects of compounds on ^3 H-oxo binding reflects the affinity for muscarinic acetylcholine receptors.\nAll preparations are performed at 0°-4° C. unless otherwise indicated. Fresh cortex (0.1-1 g) from male Wistar rats (150-250 g) is homogenized for 5-10 s in 10 mL […] Hepes pH: 7.4, with an Ultra-Turrax homogenizer. The homogenizer is rinsed with 10 mL of buffer and the combined suspension centrifuged for 15 min. at 40,000×g. The pellet is washed three times with buffer. In each step the pellet is homogenized as before in 2×10 mL of buffer and centrifuged for 10 min. at 40,000×g.\nThe final pellet is homogenized in 20 mM Hepes pH: 7.4 (100 mL per g of original tissue) and used for binding assay. Aliquots of 0.5 mL is added 25 μL of test solution and 25 μL of ^3 H-Oxotremorine (1.0 nM, final concentration) mixed and incubated for 30 min. at 25° C. Non-specific binding is determined in triplicate using arecoline (1 μg/mL, final concentration) as the test substance. After incubation samples are added 5 mL of ice-cold buffer and poured directly onto Whatman GF/C glass fiber filters under suction and immediately washed 2 times with 5 mL of ice-cold buffer. The amount of radioactivity on the filters are determined by conventional liquid scintillation counting. Specific binding is total binding minus non specific binding.\nTest substances are dissolved in 10 mL water (if necessary heated on a steam-bath for less than 5 min.) at a concentration of 2.2 mg/mL. 25-75% inhibition of specific binding must be obtained before calculation of IC50. The test value will be given as IC50 (the concentration (nM) of the test substance which inhibits the specific binding of ^3 H-oxo by 50%). IC50 =(applied test substance concentration) x([…])nM where Co is specific binding in control assays and Cx is the specific binding in the test assay. (The calculations assume normal mass-action kinetics).", "units": {"IC50": "nM"}}
{"smiles": "CCCCCCOc1nsnc1C1CC2CCC1N(C)C2", "note": "(single isomer, unassigned) [Compound 7, ENDO 2-Aza-6-(4-hexyloxy-1,2,5-thiadiaz-3-yl)-2-methyl-bicyclo[2.2.2]octane]", "IC50": 4.8}
{"smiles": "CCCCCCOc1nsnc1C1CC2CCC1N(C)C2", "note": "(single isomer, unassigned) [Compound 8, EXO 2-Aza-6-(4-hexyloxy-1,2,5-thiadiaz-3-yl)-2-methyl-bicyclo[2.2.2]octane]", "IC50": 277}
{"smiles": "CC(C)CCCSc1nsnc1C1CC2CCC1NC2", "note": "(stereo not drawn) [Compound 17, EXO 2-Aza-6-(4-((4-methylpentyl)thio)-1,2,5-thiadiaz-3-yl)-bicyclo[2.2.2]octane]", "IC50": 612}
{"smiles": "CC(C)CCCSc1nsnc1C1CC2CCC1NC2", "note": "(stereo not drawn) [Compound 18, ENDO 2-Aza-6-(4-((4-methylpentyl)thio)-1,2,5-thiadiaz-3-yl)-bicyclo[2.2.2]octane]", "IC50": 17}
{"smiles": "FC(F)(F)CCCSc1nsnc1C1CC2CCC1NC2", "note": "(stereo not drawn) [Compound 20, ENDO 2-Aza-6-(4-((4,4,4-trifluorobutyl)thio)-1,2,5-thiadiaz-3-yl)-bicyclo[2.2.2]octane]", "IC50": 4.8}
{"smiles": "FC(F)(F)c1ccc(CSc2nsnc2C2CC3CCC2NC3)cc1", "note": "(stereo not drawn) [Compound 22, EXO 2-Aza-6-(4-(((4-trifluoromethyl)phenyl)methylthio)-1,2,5-thiadiaz-3-yl)-bicyclo[2.2.2]octane]", "IC50": 680}
{"smiles": "N#Cc1ccc(CSc2nsnc2C2CC3CCC2NC3)s1", "note": "(stereo not drawn) [Compound 25, ENDO 2-Aza-6-(4-((5-cyanothien-2-yl)methylthio)-1,2,5-thiadiaz-3-yl)-bicyclo[2.2.2]octane]", "IC50": 5.4}
{"smiles": "N#Cc1ccc(CSc2nsnc2C2CC3CCC2NC3)s1", "note": "(stereo not drawn) [Compound 26, EXO 2-Aza-6-(4-((5-cyanothien-2-yl)methylthio)-1,2,5-thiadiaz-3-yl)-bicyclo[2.2.2]octane]", "IC50": 31}
{"smiles": "CCCCCCSc1nsnc1C1CC2CCC1NC2", "note": "(stereo not drawn) [Compound 27, EXO 2-Aza-6-(4-hexylthio-1,2,5-thiadiaz-3-yl)-bicyclo[2.2.2]octane]", "IC50": 3}
{"smiles": "CCCCCCSc1nsnc1C1CC2CCC1NC2", "note": "(stereo not drawn) [Compound 28, EXO 2-Aza-6-(4-hexylthio-1,2,5-thiadiaz-3-yl)-bicyclo[2.2.2]octane]", "IC50": 86}
{"smiles": "CCCCCOc1nsnc1C1CC2CCC1NC2", "note": "(stereo not drawn) [Compound 30, ENDO 2-aza-6-(4-pentoxy-1,2,5-thiadiaz-3-yl)-bicyclo[2.2.2]octane]", "IC50": 5.9}
{"smiles": "CCCCCOc1nsnc1C1CC2CCC1NC2", "note": "(stereo not drawn) [Compound 31, EXO 2-aza-6-(4-pentoxy-1,2,5-thiadiaz-3-yl)-bicyclo[2.2.2]octane]", "IC50": 161}
{"smiles": "FC(F)(F)c1ccc(COc2nsnc2C2CC3CCC2NC3)cc1", "note": "(stereo not drawn) [Compound 32, EXO 2-Aza-6-(4-((4-trifluoromethylphenyl)methoxy)-1,2,5-thiadiaz-3-yl)-bicyclo[2.2.2]octane]", "IC50": 335}
{"smiles": "FC(F)(F)c1ccc(COc2nsnc2C2CC3CCC2NC3)cc1", "note": "(stereo not drawn) [Compound 33, EXO 2-Aza-6-(4-((4-trifluoromethylphenyl)methoxy)-1,2,5-thiadiaz-3-yl)-bicyclo[2.2.2]octane]", "IC50": 208}
{"target": "muscarinic receptor in the CNS", "assay": "not given", "conditions": "first of three sites (high affinity); read-out: affinity of site labeled by ^3 H-Oxo; cited from earlier work", "units": {"Kd": "nM"}}
{"smiles": "C[N+](C)(C)CC#CCN1CCCC1=O", "note": "[^3 H-Oxo, ^3 H-Oxotremorine-M]", "Kd": 1.8}
{"target": "muscarinic receptor in the CNS", "assay": "not given", "conditions": "second of three sites (medium affinity); read-out: affinity of site labeled by ^3 H-Oxo; cited from earlier work", "units": {"Kd": "nM"}}
{"smiles": "C[N+](C)(C)CC#CCN1CCCC1=O", "note": "[^3 H-Oxo, ^3 H-Oxotremorine-M]", "Kd": 20}
{"target": "muscarinic receptor in the CNS", "assay": "not given", "conditions": "third of three sites; not determined under the present experimental conditions; read-out: affinity of site labeled by ^3 H-Oxo; cited from earlier work", "units": {"Kd": "nM"}}
{"smiles": "C[N+](C)(C)CC#CCN1CCCC1=O", "note": "[^3 H-Oxo, ^3 H-Oxotremorine-M]", "Kd": 3000}
